Data on 6 molecules can be found in PubChem BioAssay (NCI).

Some test systems named below: MOLT-4 leukemia; COLO 205 colon; SW-620 colon; OVCAR-5 ovarian; UACC-257 melanoma; A549 NSCLC; U251 CNS; UO-31 renal; RPMI-8226 leukemia; HCT-116 colon; HCC-2998 colon; HOP-92 NSCLC; HT29 colon; OVCAR-3 ovarian; SK-MEL-5 melanoma; K-562 leukemia; HL-60(TB) leukemia; SNB-19 CNS; CCRF-CEM leukemia; LOX IMVI melanoma.
What all share (assay): inhibition of tumour cell growth, NCI panel, 48 h

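The compound was tested at five concentrations on cells cultured in 96-well plates, with a 48-hour exposure period. At the TGI there is no net growth.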 A value given as a limit tells only on which side of the number the result lay.

In the case of `Cc1ccccc1-c1nc2c(C(=O)NCCN(C)C)cccc2[nH]1`, the TGI in the assay with MOLT-4 leukemia was 75.6 µM; in the assay on COLO 205 colon, 51.9 µM; with SW-620 colon it was > 100 µM; in the assay with OVCAR-5 ovarian it was > 100 µM; in the assay with UACC-257 melanoma, > 100 µM; with A549 NSCLC, > 100 µM. Further, the TGI with U251 CNS is > 100 µM; in the assay with UO-31 renal, 68.7 µM; in the assay with RPMI-8226 leukemia, 73.4 µM; with HCT-116 colon it was > 100 µM; in the assay with HCC-2998 colon it was > 100 µM; in the assay on HOP-92 NSCLC it was 85.1 µM. The TGI was > 100 µM in the assay with HT29 colon; > 100 µM in the assay with OVCAR-3 ovarian; 53.7 µM with SK-MEL-5 melanoma; > 61.1 µM in the assay with K-562 leukemia; > 74.6 µM in the assay with HL-60(TB) leukemia; > 100 µM in the assay with SNB-19 CNS. Moreover, the TGI with CCRF-CEM leukemia and in the assay with LOX IMVI melanoma was > 100 µM each time.

Take `Cc1cc(=O)[nH]c(NN2C(Cl)C(=O)C2c2ccc([N+](=O)[O-])cc2)n1` (stereo not given): the TGI in the assay on MOLT-4 leukemia was 43.2 µM; in the assay with COLO 205 colon, 35.9 µM; with SW-620 colon, 79.7 µM; in the assay with OVCAR-5 ovarian, 52.8 µM; with UACC-257 melanoma it was 37.6 µM; with A549 NSCLC, > 100 µM. Further, the TGI was determined as 36.7 µM with U251 CNS; 43.1 µM in the assay on UO-31 renal; 30.9 µM in the assay with RPMI-8226 leukemia; 22.3 µM with HCT-116 colon; 31.1 µM in the assay with HCC-2998 colon; 27.3 µM in the assay with HOP-92 NSCLC. Moreover, the TGI with HT29 colon was 43.8 µM; in the assay with OVCAR-3 ovarian, 20.6 µM; in the assay with SK-MEL-5 melanoma, 27.3 µM; in the assay with K-562 leukemia it was 15 µM; in the assay with HL-60(TB) leukemia it was 24.9 µM; with SNB-19 CNS, > 100 µM. The TGI is 6.6 µM in the assay with CCRF-CEM leukemia and 19.2 µM in the assay with LOX IMVI melanoma.

Take `COc1ccc(-c2oc3cc(O)cc(O)c3c(=O)c2OC)cc1`: the TGI is 87.9 µM in the assay on MOLT-4 leukemia; > 100 µM with COLO 205 colon; > 100 µM in the assay on SW-620 colon; > 100 µM in the assay with OVCAR-5 ovarian; > 100 µM in the assay with UACC-257 melanoma; > 100 µM with A549 NSCLC. The TGI with U251 CNS is 52.1 µM; in the assay with UO-31 renal it was 56.6 µM; in the assay with RPMI-8226 leukemia, 69.2 µM; in the assay on HCT-116 colon, > 100 µM; with HCC-2998 colon it was 62.9 µM; in the assay on HOP-92 NSCLC, 16.1 µM. Moreover, the TGI in the assay on HT29 colon is 68.3 µM; with OVCAR-3 ovarian, 60.9 µM; in the assay with SK-MEL-5 melanoma it was 43.5 µM; in the assay on K-562 leukemia, > 100 µM; with HL-60(TB) leukemia, 38.4 µM; in the assay on SNB-19 CNS, > 100 µM. For the same molecule, the TGI with CCRF-CEM leukemia and with LOX IMVI melanoma was > 100 µM each time.

For the molecule `C=CCP(=O)(CC=C)C(Cl)Cl`, the TGI in the assay with MOLT-4 leukemia, with COLO 205 colon, with SW-620 colon, in the assay on OVCAR-5 ovarian, in the assay with UACC-257 melanoma and in the assay with A549 NSCLC was > 100 µM in each case. Besides, the TGI with U251 CNS, with UO-31 renal, in the assay with RPMI-8226 leukemia, with HCT-116 colon, in the assay on HCC-2998 colon and in the assay with HOP-92 NSCLC was > 100 µM each time. For the same molecule, the TGI with HT29 colon, in the assay with OVCAR-3 ovarian, in the assay on SK-MEL-5 melanoma, in the assay with K-562 leukemia, in the assay on HL-60(TB) leukemia and with SNB-19 CNS was > 100 µM in each case. Also, the TGI in the assay on CCRF-CEM leukemia and with LOX IMVI melanoma was > 100 µM each time.

On to `COc1cccc(N[C@@H]2c3cc4c(cc3C(c3cc(OC)c(O)c(OC)c3)[C@H]3C(=O)OCC32)OCO4)c1` (stereo not given in full), for which the TGI was 0.164 µM in the assay with MOLT-4 leukemia; 7.39 µM in the assay on COLO 205 colon; > 43.2 µM in the assay on SW-620 colon; > 74.2 µM with OVCAR-5 ovarian; 34.3 µM in the assay on UACC-257 melanoma; 2.14 µM with A549 NSCLC. The TGI in the assay with U251 CNS came to 13 µM; in the assay on UO-31 renal it was 9.78 µM; with RPMI-8226 leukemia it was 2.08 µM; in the assay on HCT-116 colon, 18.7 µM; in the assay with HCC-2998 colon, 3.79 µM; in the assay on HOP-92 NSCLC, 9.33 µM. The TGI in the assay on HT29 colon was determined as 10.5 µM; with OVCAR-3 ovarian, 68.6 µM; with SK-MEL-5 melanoma, 3.04 µM; with K-562 leukemia, 14.1 µM; in the assay on HL-60(TB) leukemia it was 0.487 µM; in the assay with SNB-19 CNS it was 27.7 µM. Also, the TGI in the assay with CCRF-CEM leukemia was found to be 2.69 µM; in the assay with LOX IMVI melanoma, 10.3 µM.

As to `O=C(O)c1ccccc1N=Cc1ccc(N(CCCl)CCCl)cc1`, the TGI with MOLT-4 leukemia, with COLO 205 colon, in the assay on SW-620 colon, with OVCAR-5 ovarian, with UACC-257 melanoma and with A549 NSCLC was > 100 µM throughout. Also, the TGI in the assay with U251 CNS, with UO-31 renal, in the assay with RPMI-8226 leukemia, in the assay on HCT-116 colon, in the assay with HCC-2998 colon and in the assay with HOP-92 NSCLC was > 100 µM each time. In addition, the TGI in the assay on HT29 colon, in the assay with OVCAR-3 ovarian, in the assay on SK-MEL-5 melanoma, in the assay with K-562 leukemia, in the assay with HL-60(TB) leukemia and in the assay with SNB-19 CNS was > 100 µM throughout. Moreover, the TGI with CCRF-CEM leukemia and in the assay on LOX IMVI melanoma was > 100 µM throughout.
